Values quoted from earlier work as cited in PubChem BioAssay AID1259409 (Chemical Carcinogenesis Research Information System (CCRIS), 2018).

System: rodent chemically induced tumor inhibition, incidence and multiplicity
Assay: CCRIS tumor inhibitor studies
Details: Route [Inhibitor]: ORAL

## O=C1O[C@H]([C@@H](O)CO)C(O)=C1O
Carcinogen: 1,2-DIMETHYLHYDRAZINE DICHLORIDE, 306-37-6, Dose [Inhibitor]: 0, 0.3% SOLUTION IN DRINKING WATER BEGINNING 1 WK POST CARCINOGEN TREATMENT AND AND CONTINUING FOR DURATION OF STUDY (ST, Species: MOUSE, Strain/Sex: CBA/FEMALE, Target Tissue: Type of Lesion: UTERUS: SARCOMA, Dose [Carcinogen]: 8 MG/KG 1/WK FOR 8 WK, Promoter: ESTRADIOL DIPROPIONATE, 133-38-2
  tumour outcome (control, treated, inhibition, significance): 25/40 (63%), 14/40 (35%), 44%, p<0.001
Carcinogen: 1,2-DIMETHYLHYDRAZINE DICHLORIDE, 306-37-6, Dose [Inhibitor]: 0, 0.3% SOLUTION IN DRINKING WATER BEGINNING 1 WK POST CARCINOGEN TREATMENT AND CONTINUING FOR DURATION OF STUDY (STUDY, Species: MOUSE, Strain/Sex: CBA/FEMALE, Target Tissue: Type of Lesion: UTERUS: SARCOMA, Dose [Carcinogen]: 8 MG/KG 1/WK FOR 8 WK, Promoter: ESTRADIOL DIPROPIONATE, 133-38-2
  tumour outcome (control, treated, inhibition, significance): 25/40 (63%), 24/32 (75%), -19%, not calculated
Carcinogen: 1,2-DIMETHYLHYDRAZINE-DIHYDROCHLORIDE, 306-37-6, Dose [Inhibitor]: 25 MG/KG/D IN DIET STARTING AT TIME OF CARCINOGEN TREATMENT AND CONTINUING FOR 35 WK (STUDY DURATION: 35 WK), Species: MOUSE, Strain/Sex: CF-1/FEMALE, Target Tissue: Type of Lesion: LARGE BOWEL: GLANDULAR TUMORS, Dose [Carcinogen]: 20 MG/KG 1/WK FOR 24 WK, Promoter: NONE USED
  tumour outcome (control, treated, inhibition, significance): 18/20 (90%), 19/22 (86%), 4%, not significant
Carcinogen: 1,2-DIMETHYLHYDRAZINE-DIHYDROCHLORIDE, 306-37-6, Dose [Inhibitor]: 50 MG/KG/D IN DIET STARTING AT TIME OF CARCINOGEN TREATMENT AND CONTINUING FOR 35 WK (STUDY DURATION: 35 WK), Species: MOUSE, Strain/Sex: CF-1/FEMALE, Target Tissue: Type of Lesion: LARGE BOWEL: GLANDULAR TUMORS, Dose [Carcinogen]: 20 MG/KG, 1/WK FOR 24 WK, Promoter: NONE USED
  tumour outcome (control, treated, inhibition, significance): 18/20 (90%), 20/20 (100%), -11%, not significant
Carcinogen: 1,2-DIMETHYLHYDRAZINE-DIHYDROCHLORIDE, 306-37-6, Dose [Inhibitor]: 100 MG/KG/DAY IN DIET STARTING AT TIME OF CARCINOGEN TREATMENT AND CONTINUING FOR 35 WK (STUDY DURATION: 35 WK), Species: MOUSE, Strain/Sex: CF-1/FEMALE, Target Tissue: Type of Lesion: LARGE BOWEL: GLANDULAR TUMORS, Dose [Carcinogen]: 20 MG/KG 1/WK FOR 24 WK, Promoter: NONE USED
  tumour outcome (control, treated, inhibition, significance): 18/20 (90%), 16/23 (70%), 22%, not significant
Carcinogen: 1,2-DIMETHYLHYDRAZINE-DIHYDROCHLORIDE, 306-37-6, Dose [Inhibitor]: 200 MG/KG/DAY IN DIET STARTING AT TIME OF CARCINOGEN TREATMENT AND CONTINUING FOR 35 WK (STUDY DURATION: 35 WK), Species: MOUSE, Strain/Sex: CF-1/FEMALE, Target Tissue: Type of Lesion: LARGE BOWEL: GLANDULAR TUMORS, Dose [Carcinogen]: 20 MG/KG 1/WK FOR 24 WK, Promoter: NONE USED
  tumour outcome (control, treated, inhibition, significance): 18/20 (90%), 19/23 (83%), 8%, not significant
Carcinogen: 1,2-DIMETHYLHYDRAZINE, 540-73-8, Dose [Inhibitor]: 0, 0.02% IN DIET FOR 14 WK BEGINNING 3 D PRIOR TO CARCINOGEN TREATMENT (STUDY DURATION: 26 WK), Species: RAT, Strain/Sex: SPRAGUE-DAWLEY/MALE, Target Tissue: Type of Lesion: INTESTINE: CARCINOMA, Dose [Carcinogen]: 20 MG/KG BW 1/WK FOR 12 WK, Promoter: NONE USED
  tumour outcome (control, treated, inhibition, significance): 23/28 (82%), 12/18 (67%), 18%, not significant
Carcinogen: 1,2-DIMETHYLHYDRAZINE, 540-73-8, Dose [Inhibitor]: 0, 5% IN DIET BEGINNING 1 WK POST LAST CARCINOGEN DOSE AND CONTINUING FOR 36 WK (STUDY DURATION: 40 WK), Species: RAT, Strain/Sex: F344/MALE, Target Tissue: Type of Lesion: COLON: ADENOMA, Dose [Carcinogen]: 20 MG/KG 1/WK FOR 4 WK, Promoter: NONE USED
  tumour outcome (control, treated, inhibition, significance): 1/20 (5%), 6/20 (30%), -500%, p<0.05
Carcinogen: 1,2-DIMETHYLHYDRAZINE, 540-73-8, Dose [Inhibitor]: 0, 5% IN DIET BEGINNING 1 WK POST LAST CARCINOGEN DOSE AND CONTINUING FOR 36 WK (STUDY DURATION: 40 WK), Species: RAT, Strain/Sex: F344/MALE, Target Tissue: Type of Lesion: COLON: CARCINOMA, Dose [Carcinogen]: 20 MG/KG 1/WK FOR 4 WK, Promoter: NONE USED
  tumour outcome (control, treated, inhibition, significance): 6/20 (30%), 7/20 (35%), -17%, not calculated
Carcinogen: 1,2-DIMETHYLHYDRAZINE, 540-73-8, Dose [Inhibitor]: 0, 10 G/L IN DRINKING WATER FOR DURATION OF STUDY BEGINNING 7 D PRIOR TO CARCINOGEN TREATMENT (STUDY DURATION: 8 MO), Species: RAT, Strain/Sex: BD6/MALE, Target Tissue: Type of Lesion: INTESTINE: TUMOR, Dose [Carcinogen]: 20 MG/KG BW 1/WK FOR 20 WK, Promoter: NONE USED
  tumour outcome (control, treated, inhibition, significance): 100%, 100%, 0%, not significant
Carcinogen: 1,2-DIMETHYLHYDRAZINE, 540-73-8, Dose [Inhibitor]: 0.25% IN 20% FAT DIET DAILY STARTING 2 WK BEFORE CARCINOGEN TREATMENT AND CONTINUING FOR DURATION OF STUDY (STUDY DURATI, Species: RAT, Strain/Sex: F344/FEMALE, Target Tissue: Type of Lesion: COLON: ADENOMA, ADENOCARCINOMA, Dose [Carcinogen]: 150 MG/KG BW IN 0.9% SALINE ADJUSTED TO PH 6.8 ONCE, Promoter: NONE USED
  tumour outcome (control, treated, inhibition, significance): 26%, 0%, 100%, p<0.05
Carcinogen: 1,2-DIMETHYLHYDRAZINE, 540-73-8, Dose [Inhibitor]: 0.25% IN 20% FAT DIET DAILY STARTING 2 WK BEFORE CARCINOGEN TREATMENT AND CONTINUING FOR DURATION OF STUDY (STUDY DURATI, Species: RAT, Strain/Sex: F344/FEMALE, Target Tissue: Type of Lesion: KIDNEY: NEPHROBLASTOMA, ADENOCARCINOMA, Dose [Carcinogen]: 150 MG/KG BW IN 0.9% SALINE ADJUSTED TO PH 6.8 ONCE, Promoter: NONE USED
  tumour outcome (control, treated, inhibition, significance): 22%, 4%, 82%, p<0.05
Carcinogen: 1,2-DIMETHYLHYDRAZINE, 540-73-8, Dose [Inhibitor]: 0.3% IN DRINKING WATER BEGINNING AFTER LAST CARCINOGEN DOSE AND CONTINUING FOR DURATION OF STUDY (STUDY DURATION: 55 WK), Species: MOUSE, Strain/Sex: CBA/FEMALE, Target Tissue: Type of Lesion: UTERUS (ENDOMETRIUM): STROMAL SARCOMA, Dose [Carcinogen]: 8 MG/KG BW IN WATER 1/WK FOR 8 WK, Promoter: ESTRADIOL PROPIONATE, 113-38-2
  tumour outcome (control, treated, inhibition, significance): 13/40 (33%), 13/30 (43%), -33%, not calculated
